In patent US20230000795A1, “LIPID CRYSTALLINE COMPOSITIONS WITH ENHANCED STABILITY FOR TOPICAL DELIVERY OF ACTIVE AGENT COMBINATIONS” (Ankh Life Sciences Limited, priority 2021, published 2023):
≈ marks a conversion by molar mass, not a printed value. Where “and” joins values, the source holds several entries; their conditions need not be identical. Identical values can stand only once. Like-named read-outs stand apart in the source and are kept apart here.

Experiments:
[1] = IVPT on pig skin, finite dose 10 mg/cm^2, 3% and 6% GZ17-6.02 monoglyceride cream; settings: after 24 h
Experimental: Wash the membrane six times with 0.5 ml PBS buffer and collect the PBS in the wash fraction tubes. • 2. Dismount the cells and gently clean the membranes with PBS moisture tops. Collect the tops in the wash fraction tubes. • 3. Gently separate […] from dermis by peeling the membrane and collect in a test tube. • 4. Cut out the cell flange (the unexposed skin) with a 10 mm punch and collect the material in a test tube. • 5. […] The samples should then be centrifuged at 14000 rpm and transferred to HPLC vial for analysis.

[2] = Solubility in receptor solution (PBS with 0.1% Brij); format: physicochemical; settings: aqueous with cosolvent or surfactant or cyclodextrin, thermodynamic from solid
Experimental: Excess of GZ17-6.02 were added to the solvent, which were stirred for 1 hour and incubated at 32° C. for 24 h. Thereafter the sample was centrifuged or filtrated and the solubility determined by HPLC method DM.216.03[4] or DM.217.01 [5]. One sample was prepared and duplicate injections were analysed.

[3] = In vitro permeation test through pig skin, infinite dose (150 mg, 230 mg/cm^2), Bronaugh flow-through cells; settings: for Cumulative amount permeated: after application of 6% GZ17-6.02 cream batch, mean±SD
Experimental: Epidermal accumulation is significant due to the desired site of drug action on keratinocytes in actinic keratosis.
Three formulations were used in this experiment.
PBS buffer with 2% (w/w) Brij will be used as receptor solution.
The equipment used is Bronaugh diffusion cells. Parameters of the experiment is described in tables below. Analyses were performed according to RP-HPLC assay with additional calibration standard solutions. […] For the amount found in the tissue values both with and without cell 11 and 12 are reported.
After the in vitro experiment was terminated each membrane was washed, dismounted and prepared according to the following procedure: • 1. Wash the membrane six times with 0.5 ml PBS buffer and collect the PBS in the wash fraction tubes. • 2. Dismount the cells and gently clean the membranes with PBS moisture tops. Collect the tops in the wash fraction tubes. • 3. Gently separate […] from dermis by peeling the membrane and collect in a test tube. • 4. Cut out the cell flange (the unexposed skin) with a 10 mm punch and collect the material in a test tube. • 5. Cut the dermis into thin strips with a scalpel and collect the material in a test tube 1.5 ml.
Analysis of receptor solution and extractions from epidermis and dermis were performed by RP-HPLC.
Receptor solution were analyzed without any further treatment.
Tissue samples were treated according to the following procedure: • 1. […] Vortex the sample and sonicate for 30 minutes in cold water (2-8° C. add ice to the bath). • 3. The samples should then be centrifuged at 14000 rpm and transferred to HPLC vial for analysis.

[4] = Solubility of the active ingredients in aqueous GZ17-6.02 solutions; format: physicochemical; settings: aqueous GZ17-6.02 solution
Source text: By comparison, in one study, the solubility of the active ingredients in aqueous GZ17-6.02 solutions (not the lipid crystalline formulation) was first analyzed. […]

[5] = tested on: actinic keratosis cell line HaCaT; test: Growth inhibition of EGF-stimulated HaCaT cells (Cell Titer Glo); format: cell-based; settings: for IC50: Homo sapiens
Experimental: To investigate the mechanisms by which these pathways are affected, GZ17-6.02 was administered to the actinic keratosis cell line HT297.T in vitro and changes in signalling within various pathways were measured 6 hours post administration with cell death measured 24 hours post administration. […] 5-Fluorouracil was tested at a concentration of 50 uM.
Materials and Methods: A Cell Titer Glo assay was used to determine the sensitivity of EGF-stimulated HaCaT cells to GZ21T. Annexin-V assay was utilized to assess the pro-apoptotic effects of GZ21T on HaCaT cells, and the mechanism was clarified by western blot. AK lesions were induced in Female SKH-1 mice by exposing them to UVB radiation (500 J/m2) five times weekly for ten weeks. Mice were subsequently treated with 0.25 grams topical GZ21T or control cream five days per week. At the studies endpoint, lesional samples were collected from control and GZ21T treated mice and were subjected to RNA-sequencing and reverse phase protein arrays (RPPA). Gene set enrichment analysis (GSEA) was performed using the KEGG database as reference to identify the top pathways altered by GZ21T treatment. Gene set variation analysis (GSVA) was used to assess GZ21T's effect on pathways previously implicated in the pathogenesis of AK. Enrichment analysis was also performed on proteins showing decreased expression following GZ21T treatment using Enrichr with the KEGG database as reference.

[6] = PBS buffer with 0.1% Brij, 32° C., 24 h, read-out: Solubility in receptor solution
[7] = after application of 6% GZ17-6.02 cream
[8] = same experimental methods (FIG. 6), read-out: IC50
[9] = pig, 24 h, 6 % GZ17-6.02 in cream

Row | Compound | solubility at 24 h [2, 6] | Amount adsorbed into dermis [3, 7] | Amount adsorbed into epidermis [3, 7] | Maximum obtained concentration in the receptor solution ([3]; previous IVPT experiment) | Solubility at 2-8° C. ([4]; pH 4.3) | Solubility at 25° C. ([4]; pH 4.3) | Solubility at 2-8° C. ([4]; pH 7.0) | Solubility at 25° C. ([4]; pH 7.0) | IC50 [5, 8] | also measured
1 | COc1ccc(C=O)cc1O [Isovanillin] | 3960 ± 30 µg/mL (≈ 26000 µM) | 29.4 ± 19.3 µg/g | 181.2 ± 118.3 µg/g | 18 µg/mL | 0.27 % w/w | 0.57 % w/w | 0.18 % w/w | 0.28 % w/w |  | Applied dose permeated the skin [1]: about 2%; Cumulative amount permeated ([3]; 2 h): 35.0 ± 20.7 μg/cm^2; Cumulative amount permeated ([3]; 4 h): 103.4 ± 47.6 μg/cm^2; Cumulative amount permeated ([3]; 6 h): 169.3 ± 66.1 μg/cm^2; Cumulative amount permeated ([3]; 8 h): 209.5 ± 74.4 μg/cm^2; Cumulative amount permeated ([3]; 24 h): 208 μg/cm^2 and 207.9 ± 95.2 μg/cm^2; Applied dose permeated when deviation from the linear regime (depletion) occurs ([3]; after 6-8 hours): about 1.5%; Systemic adsorption ([3]; extrapolated from in vitro 24 h permeation to a treated area of 25 cm^2): 5.2 mg
2 | COc1ccc2c(c1)[nH]c1c(C)nccc12 [Harmine, 7-methoxy-1-methyl-9H-pyrido[3,4-b]indole] | 50 µg/mL (≈ 236 µM) | 38.9 ± 24.4 µg/g | 585.5 ± 227.8 µg/g | 0.13 µg/mL | >1.56 % w/w | >1.56 % w/w | 0.0014 % w/w | 0.0034 % w/w |  | IC50 ([5]; read-out: IC50 as Monotherapy): 2.55 µg/mL and 12 µM
3 | O=c1[nH]cc(F)c(=O)[nH]1 [5-Fluorouracil, reference compound] |  |  |  |  |  |  |  |  | 4.8 µM | 
4 | O=C(O)Cc1ccccc1Nc1c(Cl)cccc1Cl [diclofenac, reference compound] |  |  |  |  |  |  |  |  | 602 µM | 
5 | COc1cc(/C=C/C(=O)CC(=O)/C=C/c2ccc(O)c(OC)c2)ccc1O [Curcumin, 1,7-bis(4-hydroxy3-methoxyphenyl)-1,6-heptadiene-3,5-dione] |  |  |  |  |  |  |  |  |  | IC50 as Monotherapy ([5]; API alone): 0.736 µg/mL (≈ 2 µM); IC50 ([5]; API alone, read-out: IC50 as Monotherapy): 0.774 µg/mL and 2 µM; solubility at 24 h ([2]; 32 °C): 10 µg/mL (≈ 27.1 µM); Maximum obtained concentration in the receptor solution ([3]; pig, 6 % GZ17-6.02 in cream): 0 µg/mL; Amount adsorbed into dermis [3, 9]: 0.40 ± 0.23 µg/g; Amount adsorbed into epidermis [3, 9]: 3.82 ± 1.88 µg/g
